Values after ≈ are worked out from the molar mass of the structure shown. A value given as a limit tells only on which side of the number the result lay.

Experimental findings from patent publication US20160185774A1, “Anti-Infective Compounds” (priority 2013, published 2016) are described below.

For this assay, the system named is M. tuberculosis. As to the kind of experiment: microbe, parasite or virus in culture. It is filed as cell-based. To be noted: Mycobacterium tuberculosis, 120 h; read-out: QUM (MIC80).

With `CCc1nc2ccc(Cl)cn2c1C(=O)NCc1ccc(N2CCN(C(=O)c3ccc(F)cc3)CC2)cc1` [Compound 235], the MIC80 was less than 1 µM. Take `CCc1nc2c(C)cccn2c1C(=O)NCc1ccc(N2CCN(c3ccccc3)CC2)cc1` [Compound 41]: the MIC80 is less than 1 µM.

On to `CCc1nc2c(C(F)(F)F)cccn2c1C(=O)NCc1ccc(N2CCN(c3ccc(C(F)(F)F)cc3)CC2)cc1` [Compound 217], for which the MIC80 fell in the range of 1 to 20 µM (≈ 0.576 to 11.5 µg/mL).

Turning to `CCc1nc2cc(F)ccn2c1C(=O)NCc1ccc(N2CCC(c3ccc(C)cc3)CC2)cc1` [Compound 5], the MIC80 was less than 1 µM. The figure for `CCc1nc2ccc(C(F)(F)F)cn2c1C(=O)NCc1ccc(N2CCN(c3ccccc3)CC2)cc1` [Compound 80] is less than 1 µM; for `CCc1nc2ccc(Cl)cn2c1C(=O)NCc1ccc(N2CCC(OCc3ccccc3)CC2)cc1` [Compound 233] it is less than 1 µM; for `CCc1nc2ccccn2c1C(=O)NCc1ccc(N2CCC(c3ccc(Cl)cc3)CC2)cc1` [Compound 139] it is less than 1 µM. Then `CCc1nc2ccc(C(F)(F)F)cn2c1C(=O)NCc1ccc(N2CCN(c3ccc(F)cc3)CC2)cc1` [Compound 87], with less than 1 µM; and `CCc1nc2ccc(Cl)cn2c1C(=O)NCc1ccc(N2CCC(C)(O)CC2)cc1` [Compound 237], with less than 1 µM; and `CCc1nc2c(Br)cccn2c1C(=O)NCc1ccc(N2CCN(c3ccc(OC)cc3)CC2)cc1` [Compound 95], with less than 1 µM. Then `CCc1nc2ccc(C)cn2c1C(=O)NCc1ccc(N2CCN(c3ccc(C(F)(F)F)cc3)CC2)cc1` [Compound 60], with less than 1 µM; and `CCc1nc2cc(Cl)ccn2c1C(=O)NCc1cccc(C(=O)N(C)Cc2ccc(F)cc2)c1` [Compound 330], with 1 to 20 µM (≈ 0.479 to 9.58 µg/mL); and `CCc1nc2ccc(Cl)cn2c1C(=O)NCc1ccc(N2CC[C@@H](Oc3ccc(Cl)cc3)C2)cc1` [Compound 340], with less than 1 µM.

On to `CCc1nc2ccccn2c1C(=O)NCc1ccc(N2CCN(c3ccccc3)CC2)cc1` [Compound 62], for which the MIC80 is less than 1 µM. As to `CCc1nc2cc(OC)ccn2c1C(=O)NCc1ccc(N2CCN(c3ccc(C(F)(F)F)cc3)CC2)cc1` [Compound 57], the MIC80 is less than 1 µM. Then `CCc1nc2c(C(F)(F)F)cccn2c1C(=O)NCc1ccc(N2CCN(c3ccc(OC)cc3)CC2)cc1` [Compound 105], with 1 to 20 µM (≈ 0.538 to 10.8 µg/mL); and `CCc1nc2cc(C)ccn2c1C(=O)NCc1ccc(N2CCC(c3ccc(F)cc3)CC2)cc1` [Compound 163], with less than 1 µM. Then `CCc1nc2cc(Cl)ccn2c1C(=O)NCc1ccc(C(=O)CN2CCOCC2)cc1` [Compound 304], with 1 to 20 µM (≈ 0.441 to 8.82 µg/mL); and `CCc1nc2cc(OC)ccn2c1C(=O)NCc1ccc(N2CCN(c3ccc(C)cc3)CC2)cc1` [Compound 108], with less than 1 µM. As for `CCc1nc2cc(OC)ccn2c1C(=O)NCc1ccc(N2CCN(c3ccc(Cl)cc3)CC2)cc1` [Compound 220], the MIC80 is less than 1 µM. Then `CCc1nc2ccccn2c1C(=O)NCc1ccc(N2CCN(c3ccc(Cl)cc3)CC2)cc1` [Compound 37], with less than 1 µM. The figure for `CCc1nc2ccc(C)cn2c1C(=O)NCc1ccc(N2CCN(c3ccc(Cl)cc3)CC2)cc1` [Compound 66] is less than 1 µM. Then `CCc1nc2cc(OC)ccn2c1C(=O)NCc1ccc(N2CCC(c3ccc(C(F)(F)F)cc3)CC2)cc1` [Compound 195], with less than 1 µM; and `CCc1nc2ccc(OC)cn2c1C(=O)NCc1ccc(N2CCC(c3ccccc3)CC2)cc1` [Compound 118], with less than 1 µM; and `CCc1nc2cc(F)ccn2c1C(=O)NCc1ccc(N2CCC(c3ccc(Cl)cc3)CC2)cc1` [Compound 17], with less than 1 µM. Turning to `Cc1ccc(C2CCN(c3ccc(CNC(=O)c4c(C)nc5cc(Cl)ccn45)cc3)CC2)cc1` [Compound 299], the MIC80 was less than 1 µM. In the case of `CCc1nc2cc(Br)ccn2c1C(=O)NCc1ccc(N2CCN(c3ccc(C(F)(F)F)cc3)CC2)cc1` [Compound 214], the MIC80 was less than 1 µM.
